Patent US20250000855A1, “USE OF APOMORPHINE AS THERAPEUTIC AGENT FOR NECROPTOSIS-RELATED DISEASES” (INDUSTRY-ACADEMIC COOPERATION FOUNDATION, YONSEI UNIVERSITY, priority 2021, published 2025)

Legend:
MLKL phosphorylation = assay: Western blotting for MLKL phosphorylation in TBZ+APO-treated cells; format: cell-based, human; settings: TBZ+APO-treated THP-1 cells, FIG. 1B
Method: Cells were pretreated with Z-VAD (invivoGen, tlrl-vad) and a compound for 1 hour, and necroptosis was induced with TNF-α (ATGen, TNF0501) and BV6 (Biovision, B1332-5) for the indicated time. The prepared cells were appropriately treated according to analysis (Z-VAD: carbobenzoxy-valyl-alanyl-aspartyl, TNF-α: tumor necrosis factor-α, BV6: 4,4′-(1,6-hexanediyl)bis[N-methyl-L-alanyl-(2S)-2-cyclohexylglycyl-L-prolyl-β-phenyl-L-phenylalaninamide)
(§1) Cells were treated with a drug candidate and then collected using centrifugation at 4° C. and 1,500×g for 5 minutes. A supernatant was centrifuged again at 4° C. and 1,500×g for 5 minutes to remove remaining debris, concentrated at 4° C. and 14,000×g for 30 minutes using Amicon ultra-0.5 centrifugal filter unit 10K (Millipore, UFC501096), and stored. The collected cells were lysed using 1× radioimmunoprecipitation assay (RIPA) buffer (GenDEPOT, R4100-010) containing a 1× protease inhibitor (GenDEPOT, P3100-001) and a phosphatase inhibitor (Thermo Fisher Scientific, 1862495). Subsequently, the cell lysate was centrifuged at 4° C. and 20,000×g for 30 minutes to remove debris. The extracted protein concentration was measured using a bicinchoninic acid (BCA) protein assay kit (Thermo Fisher Scientific, 23225). […]

HMGB1 secretion = HMGB1 secretion into supernatant of TBZ-treated THP-1 cells, Western blotting; format: cell-based, human; settings: APO 1, 5, 20, 80, or 320 μM for 8 hours, vs TBZ only-treated group, FIG. 4
Method: as §1
To test whether secretion of HMGB1, a representative damage-associated molecular pattern, which is one of the characteristics of necroptosis, is inhibited by treating THP-1 cells with necroptosis induced by TBZ treatment with APO, after concentration-dependent treatment (1, 5, 20, 80, or 320 μM) with APO for 8 hours, all of the supernatant was concentrated, analyzed by SDS-PAGE, and investigated with an HMGB1 antibody (Experimental Method 1-6). […]

`CN1CCc2cccc3c2[C@H]1Cc1ccc(O)c(O)c1-3` [APO, apomorphine] was tested, and the MLKL phosphorylation (MLKL phosphorylation) was “did not inhibit” and the “amount of HMGB1 secreted into the supernatant” value (HMGB1 secretion) was “decreased”.
